The subject of data set [1] is Leucine-rich repeat serine/threonine-protein kinase 2 (Homo sapiens), Q5S007 [G2019S]. Description: Inhibition of purified N-terminal GST-tagged LRRK2 G2019S mutant autophosphorylation activity using myelin basic protein as substrate at 25 uM.
The target of data set [2] is Dual specificity tyrosine-phosphorylation-regulated kinase 1A (Homo sapiens) (UniProt Q13627). Description: Inhibition of DYRK1A expressed in bacteria using [gamma32-P]ATP at 25 uM.
The nature of data set [3]: Neurotoxicity in rat primary cortical neurons assessed as cell survival at 100 uM after 24 hrs by MTT assay. The format is toxicity, cell-based. The settings on record: cerebral cortex neuron. (In general: Tetrazolium assays rely on reduction of a dye to a coloured formazan, in cell work by metabolically active cells.)
Data set [4] in a line: Neurotoxicity in rat primary cortical neurons assessed as cell survival at 10 uM after 24 hrs by MTT assay. It counts as toxicity, cell-based, Cerebral cortex neuron. The conditions noted are these: read-out: Activity.
The target of data set [5] is Leucine-rich repeat serine/threonine-protein kinase 2 (Homo sapiens) (UniProt Q5S007). Description: Inhibition of wild type LRRK2 expressed in mouse SN4741 cells assessed as reduction in hydrogen peroxide-induced neurotoxicity at 10 uM by measuring cell survival after 48 hrs by crystal violet assay relative to control. The format is cell-based.
Data set [6] has as its target Leucine-rich repeat serine/threonine-protein kinase 2 (Homo sapiens, UniProt Q5S007, G2019S). Description: Inhibition of purified N-terminal GST-tagged LRRK2 G2019S mutant autophosphorylation activity using [gamma32-P]ATP.
The test system of data set [7] is Leucine-rich repeat serine/threonine-protein kinase 2 (Homo sapiens), Q5S007 [G2019S]. Nature of the data set: Inhibition of LRRK2 G2019S mutant expressed in mouse SN4741 cells assessed as reduction in hydrogen peroxide-induced neurotoxicity at 10 uM by measuring cell survival after 48 hrs by crystal violet assay relative to control. The format is cell-based.

Each structure is given as a SMILES string. The source made the active and inactive calls. The calls are words filed in the database; no cut-off is given here.

Sequence of Leucine-rich repeat serine/threonine-protein kinase 2 (Homo sapiens), Q5S007 [G2019S] (Q5S007 whole entry G2019S): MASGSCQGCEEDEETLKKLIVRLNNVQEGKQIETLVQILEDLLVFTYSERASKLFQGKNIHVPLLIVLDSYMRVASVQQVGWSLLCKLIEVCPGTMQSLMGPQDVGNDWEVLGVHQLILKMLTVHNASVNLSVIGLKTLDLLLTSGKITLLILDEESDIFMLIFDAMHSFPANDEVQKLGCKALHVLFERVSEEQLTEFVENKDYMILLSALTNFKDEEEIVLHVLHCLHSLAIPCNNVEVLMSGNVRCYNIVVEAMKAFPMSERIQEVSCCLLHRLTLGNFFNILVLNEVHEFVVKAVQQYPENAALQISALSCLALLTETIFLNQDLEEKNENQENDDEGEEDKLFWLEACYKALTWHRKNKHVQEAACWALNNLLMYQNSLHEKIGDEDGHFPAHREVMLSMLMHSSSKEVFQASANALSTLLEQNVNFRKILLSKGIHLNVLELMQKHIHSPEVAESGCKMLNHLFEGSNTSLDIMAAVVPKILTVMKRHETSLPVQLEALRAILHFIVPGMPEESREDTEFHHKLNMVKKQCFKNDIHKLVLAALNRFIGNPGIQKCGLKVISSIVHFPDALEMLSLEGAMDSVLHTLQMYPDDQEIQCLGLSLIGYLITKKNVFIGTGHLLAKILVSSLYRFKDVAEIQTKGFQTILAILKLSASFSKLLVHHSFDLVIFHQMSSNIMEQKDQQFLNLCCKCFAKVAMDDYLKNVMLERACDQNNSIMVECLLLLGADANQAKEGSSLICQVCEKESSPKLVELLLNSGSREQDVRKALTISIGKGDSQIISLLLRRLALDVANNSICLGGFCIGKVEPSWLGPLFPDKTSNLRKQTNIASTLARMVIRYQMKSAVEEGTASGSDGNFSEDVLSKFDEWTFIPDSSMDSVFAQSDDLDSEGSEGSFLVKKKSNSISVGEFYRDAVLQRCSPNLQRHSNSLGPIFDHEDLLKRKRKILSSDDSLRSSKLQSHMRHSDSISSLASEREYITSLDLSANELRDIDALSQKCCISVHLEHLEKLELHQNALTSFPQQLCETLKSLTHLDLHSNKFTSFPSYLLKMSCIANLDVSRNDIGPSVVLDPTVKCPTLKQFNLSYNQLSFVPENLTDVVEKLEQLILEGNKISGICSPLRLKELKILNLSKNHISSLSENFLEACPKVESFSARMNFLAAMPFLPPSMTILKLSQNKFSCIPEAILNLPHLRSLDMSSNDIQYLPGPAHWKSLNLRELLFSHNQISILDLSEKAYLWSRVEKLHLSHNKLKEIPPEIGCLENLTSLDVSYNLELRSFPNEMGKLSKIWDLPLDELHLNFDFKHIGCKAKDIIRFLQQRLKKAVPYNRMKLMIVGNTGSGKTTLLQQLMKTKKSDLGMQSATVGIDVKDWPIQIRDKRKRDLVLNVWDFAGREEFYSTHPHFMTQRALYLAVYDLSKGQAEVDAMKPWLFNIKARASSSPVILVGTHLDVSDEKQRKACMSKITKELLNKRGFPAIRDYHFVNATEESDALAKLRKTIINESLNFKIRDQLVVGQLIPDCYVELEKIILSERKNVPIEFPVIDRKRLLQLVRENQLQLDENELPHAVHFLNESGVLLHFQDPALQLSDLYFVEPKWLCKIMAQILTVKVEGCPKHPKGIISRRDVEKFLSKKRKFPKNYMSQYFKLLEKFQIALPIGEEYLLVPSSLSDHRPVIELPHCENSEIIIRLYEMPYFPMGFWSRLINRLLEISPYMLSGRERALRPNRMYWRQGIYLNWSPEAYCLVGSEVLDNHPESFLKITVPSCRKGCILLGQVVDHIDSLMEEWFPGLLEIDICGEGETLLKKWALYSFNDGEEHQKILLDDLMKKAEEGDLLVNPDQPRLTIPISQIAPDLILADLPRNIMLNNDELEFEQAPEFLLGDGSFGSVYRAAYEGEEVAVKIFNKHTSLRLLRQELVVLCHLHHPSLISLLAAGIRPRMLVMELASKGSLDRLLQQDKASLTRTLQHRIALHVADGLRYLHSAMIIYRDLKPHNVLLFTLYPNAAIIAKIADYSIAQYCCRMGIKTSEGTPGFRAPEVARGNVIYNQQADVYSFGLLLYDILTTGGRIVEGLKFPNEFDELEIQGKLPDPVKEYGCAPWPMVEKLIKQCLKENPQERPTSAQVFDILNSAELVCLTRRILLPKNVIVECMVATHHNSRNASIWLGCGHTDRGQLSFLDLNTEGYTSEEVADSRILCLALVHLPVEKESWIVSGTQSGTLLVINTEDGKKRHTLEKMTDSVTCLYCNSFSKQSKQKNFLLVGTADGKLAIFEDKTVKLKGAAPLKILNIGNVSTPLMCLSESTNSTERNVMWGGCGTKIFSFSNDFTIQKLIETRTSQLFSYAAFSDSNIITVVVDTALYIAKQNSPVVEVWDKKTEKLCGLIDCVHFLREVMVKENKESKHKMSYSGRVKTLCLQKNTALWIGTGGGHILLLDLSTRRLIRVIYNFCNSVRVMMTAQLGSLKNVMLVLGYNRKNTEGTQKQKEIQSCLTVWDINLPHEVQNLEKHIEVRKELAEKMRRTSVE
Sequence of Leucine-rich repeat serine/threonine-protein kinase 2 (Q5S007 whole entry G2019S): as above
Sequence of Leucine-rich repeat serine/threonine-protein kinase 2 (Homo sapiens) (Q5S007 whole entry): as the sequence (Q5S007 whole entry G2019S) above, with S2019G counted along it

As usually defined, the IC50 is the point on the concentration scale where inhibition reaches its midpoint. The low end stands for inhibition by little substance, the high end for a need for much substance. As to `Cc1cc(N/N=C/c2ccc(O)c(O)c2)nc2ccccc12`, in data set [1], the inhibition entry was “Active”. Further, in data set [2], the inhibition result is “inactive”. For the same molecule, the Activity entry in data set [3] is “Toxic”; in data set [5], 50%; in data set [7] it was 50%. The viability at 24 h, 10 µM in data set [4] came out at 85%. Also, in data set [6], it took 13.2 µM to reach half-maximal inhibition (IC50).

Regarding `Oc1ccc(/C=N/Nc2ccc3ccccc3n2)c(O)c1`, the inhibition entry in data set [1] is “Active”.

As for `COc1ccc(/C=N/Nc2ccc3ccccc3n2)cc1`, the inhibition entry in data set [1] is “Active”.

On to `COc1cc(/C=N/Nc2nc3cc(C)ccc3cc2C)ccc1O`, for which, in data set [1], the inhibition result is “Active”.

For the molecule `Cc1ccc2cc(C)c(N/N=C/c3ccc(O)cc3)nc2c1`, in data set [1], the inhibition entry is “Active”.

Values taken from ChEMBL document CHEMBL1770059, “Identification of chemicals to inhibit the kinase activity of leucine-rich repeat kinase 2 (LRRK2), a Parkinson's disease-associated protein” (Bioorg Med Chem Lett, 2011).
